Measured values: publication PMC11611271, “Rapid prediction of key residues for foldability by machine learning model enables the design of highly functional libraries with hyperstable constrained peptide scaffolds” (PLOS Computational Biology, 2024)
Where a SMILES comes first, the peptide text is derived from it. Bridges are numbered along the chain shown (N, C = ends). Where no end group is shown, it is not given here.

How the values were obtained:
CD8α/β = assay: phage spot ELISA on CD8α/β; type: binding; details: for S/N: phage spot ELISA signal/noise; for ELISA: phage spot ELISA signal
Excerpt: (§1) To determine the performance of the libraries for ligand discovery we chose a panel of eight protein targets, which have no structural homology and a wide mass range (Fig 7C). We screened these eight targets with solution panning strategy and two additional plate panning for CD8α/β and CD28, thus ten panning campaigns in total. We consider clones showing spot phage ELISA signal > 0.3 and signal/noise ratio > 2 as positive hits. At least one binding hit was discovered for nine out of the ten panning campaigns, surpassing the success rate of the best DCP scaffolds reported previously. We also obtained the NGS data for these screening and the ranking of clones for their enrichment along the rounds of screening was analyzed and considered the top-ranking clones as potential hits. Based on their sequence diversity we selected 16 potential hits spanning five protein targets for peptide synthesis in their linear form. Seven of these are hits with positive phage ELISA signal and nine were selected based on NGS ranking without spot ELISA available. Subsequently, we conducted in vitro folding experiments on these peptides in various buffers. We observed a strong propensity for spontaneous folding regardless of the buffer condition. All HCP hits tested successfully folded into three-disulfide-containing product within two days in a universal buffer system (PBS, pH 7.4, 50% DMSO) without the need for a redox pair, as shown in Fig 8A. The binding of these folded peptides to their respective target proteins was confirmed using SPR (Table 4 and S1 Data) and binding kinetics are exemplified by the high-affinity peptide 5ji4-CRD7-2 (see Fig 8B). Among seven selected ELISA-positive hits, all of them were successfully synthesized and in vitro folded with three disulfide bonds and five were proven to be validated binders by SPR (Table 4). Nine peptides selected from the NGS ranking were synthesized and folded with the expected number of disulfide bonds and five of them bound to their target with affinities in the μM range as determined by SPR (Table 4). In general, binding affinities for these SPR-validated initial hits are weak, with Kd values in the micromolar range and fast on- and off-rates. There are two exceptions with binding affinities in the nanomolar range.
(§2) The 5ji4 libraries were constructed following the Kunkel mutagenesis method and the solution panning protocol was followed as previously described. After four to five rounds of binding selection, while eluted pool was subjected to NGS analysis, individual phage clones were also picked and analyzed with phage spot ELISA. Positive clones were subjected to SANGER sequencing.

HtrA1 = assay: phage spot ELISA on HtrA1; type: binding; details: Fig 9A; for ELISA s/n: Spot ELISA signal/noise; for ELISA signal: Spot ELISA
Excerpt: To determine the performance of the libraries for ligand discovery we chose a panel of eight protein targets, which have no structural homology and a wide mass range (Fig 7C). We screened these eight targets with solution panning strategy and two additional plate panning for CD8α/β and CD28, thus ten panning campaigns in total. We consider clones showing spot phage ELISA signal > 0.3 and signal/noise ratio > 2 as positive hits. […] We also obtained the NGS data for these screening and the ranking of clones for their enrichment along the rounds of screening was analyzed and considered the top-ranking clones as potential hits. Based on their sequence diversity we selected 16 potential hits spanning five protein targets for peptide synthesis in their linear form. Seven of these are hits with positive phage ELISA signal and nine were selected based on NGS ranking without spot ELISA available. Subsequently, we conducted in vitro folding experiments on these peptides in various buffers.
as §2
Among these five hits, A7, which is the SANGER hit, was picked for affinity maturation. Following the same strategy, one soft- and one hard-randomization library was designed targeting the 5JI4 variable regions 1 and 2, respectively. Two libraries were each panned as previously described. Both phage spot ELISA coupled with SANGER sequencing and NGS analysis were applied after affinity maturation.

human full-length HtrA1 = biological target: T1, human full-length HtrA1 (Homo sapiens, UniProt Q92743); assay: HtrA1 enzymatic assay; type: biochemical
T1 construct: we used human full-length HtrA1 (HtrA1), which was expressed in Trichoplusia ni cells; made in house; host or cells: Trichoplusia ni cells
T1 sequence (Q92743 23-480): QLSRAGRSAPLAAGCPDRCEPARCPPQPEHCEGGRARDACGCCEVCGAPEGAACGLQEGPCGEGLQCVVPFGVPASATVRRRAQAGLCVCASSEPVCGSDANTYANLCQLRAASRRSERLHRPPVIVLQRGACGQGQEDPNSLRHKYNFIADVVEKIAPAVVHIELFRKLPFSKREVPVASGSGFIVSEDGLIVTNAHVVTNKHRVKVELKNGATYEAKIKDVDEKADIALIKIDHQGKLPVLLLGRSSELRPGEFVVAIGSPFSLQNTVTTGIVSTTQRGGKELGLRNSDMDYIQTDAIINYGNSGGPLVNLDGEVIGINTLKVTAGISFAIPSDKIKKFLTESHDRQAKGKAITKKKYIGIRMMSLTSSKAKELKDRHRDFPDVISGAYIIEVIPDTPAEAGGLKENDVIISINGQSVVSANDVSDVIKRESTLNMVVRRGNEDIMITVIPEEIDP
Description: For enzymatic assays we used human full-length HtrA1 (HtrA1), which was expressed in Trichoplusia ni cells and purified as described. Enzyme assays with the fluorescence-quenched synthetic substrate Mca-[…](Dnp)KK (H2-OPT) were carried out essentially as described. […] A 10 mM stock solution of H2-OPT in DMSO was diluted with water, prewarmed at 37°C and then added to the HCP-enzyme mixtures. The final concentrations in the reaction mixtures were: 1 nM HtrA1, 5 μM H2-OPT, 0.1% DMSO and varied concentrations of HCP. Substrate cleavage was measured at 37°C on a SPECTRAmax M5 microplate reader (Molecular Devices) and the initial rates of cleavage determined. The IC50 values were determined by fitting the data to the 4 parameter sigmoid function.

RSP02 = assay: phage spot ELISA on RSP02; type: binding; details: S3 Table sheet RSP02
Excerpt: as §1, §2

CD8α-Fc [1] = biological target: T2, CD8α-Fc (UniProt P01732 22-182); assay: SPR; Biacore S200, Fc-fusion target on Sensor Chip Protein A, peptide flowed, single-cycle kinetics, three-fold dilution series from approximately 100 μM, 25°C, 30 μl/min, HBS-EP with 5% DMSO; steady-state equilibrium model; details: both partners purified
T2 construct: CD8 alpha chain, bought as Fc fusion; captured on a Protein A sensor chip by its Fc; source: bought: R&D, #AVI10927
T2 sequence (P01732 22-182): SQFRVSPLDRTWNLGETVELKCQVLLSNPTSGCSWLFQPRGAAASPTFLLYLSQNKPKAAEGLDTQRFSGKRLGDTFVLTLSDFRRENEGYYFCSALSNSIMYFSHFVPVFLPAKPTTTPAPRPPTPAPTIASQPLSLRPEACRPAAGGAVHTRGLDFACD

CD8α-Fc [2] = biological target: T2, CD8α-Fc; assay: SPR; Biacore S200, Fc-fusion target on Sensor Chip Protein A, peptide flowed, single-cycle kinetics, three-fold dilution series from approximately 100 μM, 25°C, 30 μl/min, HBS-EP with 5% DMSO; 1:1 binding (kinetic) model, or no binding seen; details: both partners purified
VEGF_(8-109) [3] = biological target: VEGF_(8-109) (UniProt P15692); assay: ELISA; phage spot ELISA of individual phage clones after panning; clones with signal > 0.3 and signal/noise ratio > 2 counted as positive hits
VEGF_(8-109) [4] = biological target: VEGF_(8-109) (UniProt P15692); assay: SPR; Biacore S200, target on Series S Sensor Chip SA, peptide flowed, single-cycle kinetics, three-fold dilution series from approximately 100 μM, 25°C, 30 μl/min, HBS-EP with 5% DMSO; 1:1 binding (kinetic) model
[5] = S3 Table sheet CD8αβ-2 (panning campaign 2)
[6] = S3 Table sheet CD8αβ-1 (panning campaign 1)

In the case of “PCECLMIAVMLVRPSSEECERLCRKLGVTNCRVHCG [CD8αβ-2 clone 3, phage clone, 5JI4 library, CD8αβ-2 panning]”, the S/N (CD8α/β; [5]) is reported as 1.6 and the ELISA (CD8α/β; [5]) is reported as 0.223.

“PCECDVHGETYTVSSSEEGTSVPTWLISLCRVHCG [CD8αβ-1 clone 2, phage clone, 5JI4 library, CD8αβ-1 panning]” showed a S/N (CD8α/β; [6]) of 34.8 and an ELISA (CD8α/β; [6]) of 3.031.

With `CC[C@H](C)[C@@H]1NC(=O)[C@H]([C@@H](C)O)NC(=O)[C@@H]2CSSC[C@H](NC(=O)[C@H](CCC(=O)O)NC(=O)[C@H](C)NC(=O)[C@H](CO)NC(=O)[C@H](CO)NC(=O)[C@H]([C@@H](C)O)NC(=O)[C@H](CC(C)C)NC(=O)[C@H](Cc3ccccc3)NC(=O)[C@H](Cc3c[nH]cn3)NC(=O)[C@H](Cc3c[nH]c4ccccc34)NC(=O)CNC(=O)[C@H](CCCNC(=N)N)NC(=O)[C@H](CC(C)C)NC1=O)C(=O)N[C@@H](CCC(=O)O)C(=O)N[C@@H](CCCNC(=N)N)C(=O)N[C@@H](CC(C)C)C(=O)N[C@H]1CSSC[C@H](NC(=O)[C@H]([C@@H](C)O)NC(=O)[C@H](CCCNC(=N)N)NC(=O)[C@H](CC(C)C)NC(=O)CNC(=O)[C@H](CC(C)C)NC(=O)[C@H](CCCNC(=N)N)NC(=O)[C@H](CC(=O)O)NC1=O)C(=O)N[C@@H](CCCNC(=N)N)C(=O)N[C@@H](C(C)C)C(=O)N[C@@H](Cc1c[nH]cn1)C(=O)N[C@H](C(=O)NCC(=O)O)CSSC[C@H](NC(=O)[C@@H]1CCCN1)C(=O)N[C@@H](CCC(=O)O)C(=O)N2` [5ji4_A7] (H-PCECTILRGWHFLTSSAECERLCDRLGLRTCRVHCG-OH; disulfide 2-35, 4-19, 23-31) the ELISA s/n (HtrA1) was 5.8, the ELISA signal (HtrA1) was 3.36 and the “inhibition of HtrA1 activity” value (human full-length HtrA1; maximal inhibition in the concentration-response) was “complete inhibition”.

“PCECDYPVYHDDYKSSEECERLCRKLGVTNCRVHCG [CD8αβ-2 clone 1, phage clone, 5JI4 library, CD8αβ-2 panning]” was tested, and the S/N (CD8α/β; [5]) was 27.2 and the ELISA (CD8α/β; [5]) was 3.534.

Molecule “PSECPNPPFEVRTWSSEECERLCRKLGVTNCVCG [CD8αβ-1 clone 1, phage clone, 5JI4 library, CD8αβ-1 panning]” has a S/N (CD8α/β; [6]) of 18.5 and an ELISA (CD8α/β; [6]) of 1.938.

“PCECGPYHDDMDKTSSEECERLCRKLGVTNCRVHCG [CD8αβ-2 clone 2, phage clone, 5JI4 library, CD8αβ-2 panning]” showed a S/N (CD8α/β; [5]) of 2.4 and an ELISA (CD8α/β; [5]) of 0.296.

“PCECDVNGETYTVSSSEECERLCRKLGVTNCRVHCG (also: bicyclic or more (positions not given here)) [5ji4, reference compound]” was tested, and the ELISA s/n (HtrA1) was 1.4, the ELISA signal (HtrA1) was 0.83 and the IC50 (human full-length HtrA1; 1 nM HtrA1, 5 μM H2-OPT substrate, 0.1% DMSO, 15 min pre-incubation, 37°C, pH 8.0, 4 parameter fit) was “not inhibitory”.

Molecule “PCECTYKDDWQKGASSEECERLCRKLGVTNCRVHCG [RSP02 clone 1, phage clone, 5JI4 library, RSP02 panning]” has a S/N (RSP02; phage spot ELISA signal/noise) of 1.427 and an ELISA (RSP02; phage spot ELISA signal) of 0.204.

B1: 5ji4-CD8-22 (peptide)
chain: PCECLVTPYKDDYKSSEECERLCVWWLSTVCRVPCG
notes: clone from the 5JI4 scaffold phage libraries, picked by NGS ranking; free N- and C-termini; three disulfide bonds; source: synthetic peptide (CSBio), folded in vitro, HPLC purified
B1 showed a Kd (CD8α-Fc [1]) of 76.3 ± 35.7 µM.

B2: 5ji4-CD8-21 (peptide)
chain: PCECVWESFAHLPWSSEECERLCLNWLSSLCRVHCG
notes: as for B1
B2 showed a Kd (CD8α-Fc [2]) of 6 ± 2.2 µM.

B3: 5ji4-CD8-20 (peptide)
chain: PCECDVNGETYTVSSSEECERLCVWWLSTVCRVPCG
notes: as for B1
B3 gave a Kd (CD8α-Fc [1]) of 23 ± 7 µM.

B4: 5ji4-VEGF-2 displayed on M13 phage (peptide)
chain: PCECFMYDILVGLASSEECERLCRKLGVTNCRVHCG
B4 was tested, and the phage spot ELISA signal (VEGF_(8-109) [3]) was 4.71 and the phage spot ELISA signal/noise (s/n) (VEGF_(8-109) [3]) was 44.5.

B5: 5ji4-VEGF-2 (peptide)
chain: B4 chain
B5 showed a Kd (VEGF_(8-109) [4]) of 6.8 µM.

B6: 5ji4-VEGF-3 displayed on M13 phage (peptide)
chain: PCECDVNVETYTVSSSEECKRLCWGFGQSDCRVHCG
In the case of B6, the phage spot ELISA signal (VEGF_(8-109) [3]) is reported as 3.07 and the phage spot ELISA signal/noise (s/n) (VEGF_(8-109) [3]) is reported as 32.2.

B7: 5ji4-VEGF-3 (peptide)
chain: B6 chain
Work on B7 yielded a Kd (VEGF_(8-109) [4]) of 0.12 µM.

B8: 5ji4-CD8-2 (peptide)
chain: H-PCECVWESFAHLPWSSEECERLCRKLGVTNCVCG-OH
modifications: disulfide (positions not given here); also: three disulfide bonds, pairing not given here
Molecule B8 has a Kd (CD8α-Fc [2]) of 4.2 ± 4.3 µM.
